Tests used:
mouse EDL muscle = conditions: cited from earlier work
healthy rats = assay: Rotarod running assay; format: in vivo, rat; conditions: control treatments by oral gavage: 300 mg/kg (60 min), caffeine 10 mg/kg (30 min), phosphoserine 1000 mg/kg (24 hours prior)
Description: Female Sprague Dawley rats (210-260 g) were obtained from Charles River Laboratories and acclimated in the test facility for a minimum of six days prior to the start of the study. All rats were trained the day prior to compound administration. Training consisted of placing the rats on the rotating drum (rod), starting at a low constant speed (10 RPM). The rats were acclimated to walk on the drum for 5 minutes before resting. A second training session of an increasing speed from 14-16 RPM was initiated after all rats in the experimental group had finished the first training session. […] On the day of the experiment animals were dosed thirty minutes prior to start of test. The test began with a 5 minute primer session, whereby animals were run at an increasing speed from 14-16 RPM over 5 minutes. Rats were then run at a constantly accelerating rate from 12 RPM to 25 RPM over the course of 10 minutes. […] Time to fall was recorded, with the test being terminated at 900 seconds. Compound A was administered via oral gavage 30 minutes prior to assessment. Each dose was formulated as a suspension containing 0.2% Tween 80, 0.5% HPMC and water. Dose volume was 5 mL/kg. Vehicle (0.2% Tween 80, 0.5% HPMC and water) was administered similarly. Control treatments were chosen based on association with amelioration of central fatigue (caffeine, Davis 2003), muscular fatigue (creatine, Boyadjiev, 2007) and dual central/muscular fatigue (phosphoserine, […] 1976).

[1] = test system: rat plantarflexor muscles; assay: Rat plantar flexor force and power in situ; format: in vivo
Description: Rats were placed under anesthesia using isoflurane and the sciatic nerve of the experimental leg exposed. The rat was then placed on the platform of an Aurora in-situ muscle analysis rig (806C), maintained at body temperature via a circulating water system. The knee was immobilized in a clamp between two sharpened screws and the foot attached securely to the footplate of a force transducer (Aurora Scientific, Ontario, Canada) using laboratory tape. The muscle was stimulated directly via the sciatic nerve. For isolation of the nerve, a 1 cm incision was made at the upper thigh and the overlying muscle was dissected to expose an approximate 5 mm stretch of the sciatic nerve. This was then dissected free of surrounding connective tissue and a pair of stainless steel needle electrodes (0.10 mm) were hooked around the exposed nerve. The peroneal branch was severed to remove innervation to the plantar-extensor muscle groups. Muscle contractile properties were assessed by applying an electrical current to the nerve and recording the force generated by the muscle via a servomotor. Isokinetic contractile properties were assessed as force generated during a pre-programmed movement of the footplate. Footplate movements were 0.7 radians in size ([…]).
Solutions of Compound A (50% PEG300/10% EtOH/40% cavitron formulation) were administered via a femoral vein catheter as a single slow bolus over a 2 min period, with a maximal dosage volume of 5 ml/Kg. During the experiment, blood was drawn via the tail vein for compound concentration analysis. At the end of each assay, the length and weight of the muscle was recorded, and measured force normalized to the mass of the muscle (N/g).
Compound A increased force generation throughout the curve to generate a total of 55% more work over the 300 second period, while maintaining a similar profile to that of the vehicle.
The same protocol was repeated with a second skeletal muscle troponin activator, 1-((1R)-1-methylpropyl)-6-chloro-7-pyrazolylimidazo[4,5-b]pyridin-2-ol (Compound B). Compound B and analogous skeletal muscle troponin activators are disclosed in U.S. Pat. No. 7,989,469. […] 0.7 radian displacement and stimulation frequency calculated to provide 50% of maximum isokinetic tension. Compound B maintained force generation throughout the curve, at almost 50% of vehicle stimulation frequency, to generate the same total work over the 300 second period, while maintaining a similar profile to that of the vehicle.

## O=C1CN(/N=C/c2ccc(-c3ccc([N+](=O)[O-])cc3)o2)C(O)=N1 [dantrolene]
Mouse EDL muscle; 20 μM
  tetanic tension and fatigue development: decreased early tetanic tension yet abolished overall fatigue development

## CN(CC(=O)O)C(=N)N [creatine, reference compound]
Healthy rats
  running time vs vehicle: no significant difference

## N[C@@H](COP(=O)(O)O)C(=O)O [phosphoserne, phosphoserine, reference compound]
Healthy rats
  running time vs vehicle: no significant difference

## 1-((1R)-1-methylpropyl)-6-chloro-7-pyrazolylimidazo[4,5-b]pyridin-2-ol [Compound B]
[1]; at 3.1 radians/s
  isokinetic force frequency relationship: increased in the submaximal range in a dose dependent manner
[1]; at 30 Hz
  force-velocity relationship: increased across all velocities in a dose and velocity dependent manner
[1]; corresponding to force velocities at 30 Hz
  power output: dose-dependent increase
[1]; in situ
  isometric force frequency relationship: increased in the submaximal range in a dose dependent manner
[1]; isokinetic fatigue protocol at 50% of maximum isokinetic tension, 300 second period
  stimulation frequency to generate the same total work: ~50 % of vehicle stimulation frequency
[1]; isokinetic fatigue protocol, 1 flexion per second at 3.1 radians/s, 30 Hz, vs vehicle
  more total work over the 300 second period: 105%

## Cn1c(=O)c2c(ncn2C)n(C)c1=O [caffeine, reference compound]
Healthy rats
  running time vs vehicle: no significant difference
Mouse EDL muscle; repeated 60 Hz stimulation over 6 minutes
  tetanic tension and muscle fatigue: increased initial tetanic EDL tension but accelerated and accentuated muscle fatigue

— US20190167676A1, “METHODS FOR IMPROVING RESISTANCE TO SKELETAL MUSCLE FATIGUE” (Cytokinetics, Inc., priority 2012, published 2019)
